We go through eight molecules from EP0432442A1, “ACAT inhibitors” (priority 1989, dated 1991).

Assay [1] concerns the target acyl-CoA: cholesterol acyltransferase (ACAT). The assay is described as follows: in vitro ACAT inhibition: formation of radiolabeled cholesterol oleate from radiolabeled oleic acid in rabbit intestinal microsomes. It counts as biochemical. Conditions: tissue preparation containing rabbit intestinal microsomes. As for the experimental part: The ability of representative compounds of the present invention to inhibit ACAT was measured using an in vitro test more fully described in F. J. Field and R. G. Salone, Biochemica et Biophysica 712:557-570 (1982). The test assesses the ability of a test compound to inhibit the acylation of cholesterol by oleic acid by measuring the amount of radiolabeled cholesterol oleate formed from radiolabeled oleic acid in a tissue preparation containing rabbit intestinal microsomes.
The data appear in Table 1 where they are expressed in IC50 values; i.e., the concentration of test compound required to inhibit 50% […] of the enzyme.

The subject of assay [2] is male Sprague-Dawley rats. The assay is described as follows: in vivo screen designated APCC: blood cholesterol in rats fed the PCC diet. Conditions: blood cholesterol vs vehicle (CMC/Tween); dosed at 4 PM, PCC diet with 1% or 0.5% cholic acid overnight, sacrificed at 8 AM; dose not given. The source says: In one in vivo screen designated APCC. male Sprague-Dawley rats (200 to 225 g) were randomly divided into treatment groups and dosed at 4 PM with either vehicle (CMCTween) or suspensions of compounds in vehicle. The normal chow diet was then replaced with the PCC diet with either 1% or 0.5^00 cholic acid, as indicated. The rats consumed this diet ad libitum during the night and were sacrificed at 8 AM to obtain blood samples for cholesterol analysis using standard procedures. Statistical differences between mean cholesterol values for the same vehicle were determined using analysis of variance followed by Fisher's least significant test.

The term IC50 denotes the concentration needed to halve the response being measured. A lower IC50 goes with inhibition by little substance. `CCCCCCC(=O)NC(CNC(=O)Nc1c(C(C)C)cccc1C(C)C)c1ccccc1` (racemic) [Example 7, (±)-N-[2-[[[[2,6-bis(1-methylethyl)phenyl]amino]carbonyl]amino]-1-phenylethyl]heptanamide] gave a half-maximal inhibitory concentration (IC50) in assay [1] of 150 nM.
On the same count and under the same terms, next, `COCCCCCC(=O)NC(CNC(=O)Nc1c(C(C)C)cccc1C(C)C)c1ccccc1` (racemic) [Example 10, (±)-N-[2-[[[[2,6-bis(1-methylethyl)phenyl]amino]carbonyl]amino]-1-phenylethyl]-6-methoxyhexanamide]: 390 nM.
The molecule `CC(C)c1cccc(C(C)C)c1NC(=O)NCC(NCc1ccccc1)c1ccccc1` (racemic) [Example 5, (±)-N-(2,6-bis(1-methylethyl)phenyl]-N'-[2-phenylmethylamino)-2-phenylethyl]urea] yielded a concentration for half-maximal inhibition (IC50) in assay [1] of 51 nM. Moreover, in assay [2], the “% Change (mg/dl)” value is -53%.
`CCCCCCCCCCCCNCC(CNC(=O)Nc1c(C(C)C)cccc1C(C)C)c1ccccc1` (racemic) [Example 11, (±)-N-[2,6-bis(1-methylethyl)phenyl]-N'-[3-dodecylamino-2-phenylpropyl]urea]: the “% Change (mg/dl)” value in assay [2] was -54%.
`CC(C)c1cccc(C(C)C)c1NC(=O)NCC(NC(=O)CCCCCBr)c1ccccc1` (racemic) [Example 9, (±)-N-[2-[[[[2,6-bis(1-methylethy))phenyl]amino]carbonyl]amino]-1-phenylethyl]-6-bromohexanamide]: in assay [1], the 50% inhibitory concentration (IC50) turned out to be 380 nM. Moreover, the “% Change (mg/dl)” value in assay [2] is listed as -36%.
The molecule `CC(C)c1cccc(C(C)C)c1NC(=O)NCC(NC(=O)c1ccccn1)c1ccccc1` (racemic) [Example 12, (±)-N-[2-[[[[2,6-bis(1-methylethyl)phenyl]amino]carbonyl]amino]-1-phenethyl-2-pyridinylarnide] displayed an IC50 in assay [1] of 80 nM. In other words, the double-digit nanomolar range.
In assay [1], `CC(C)c1cccc(C(C)C)c1NC(=O)NCC(NC(=O)c1ccccc1)c1ccccc1` (racemic) [Example 4, (±)-N-[2-[[[[2,6-bis(1-methylethyl)phenyl]amino]carbonyl]amino]-1-phenylethyl]benzenecarboxamide] yielded a concentration for half-maximal inhibition (IC50) of 530 nM.
Consider `CCCCCCCNC(CNC(=O)Nc1c(C(C)C)cccc1C(C)C)c1ccccc1` (racemic) [Example 8, (±)-N-[2,6-bis(1-methylethyl)phenyl]-N'-[2-heptylamino-2-phenylethyl]urea], for which, in assay [1], half-maximal inhibition (IC50) required 110 nM. Moreover, the “% Change (mg/dl)” value in assay [2] was -25%.
